Data taken from US7160897B2, “Therapeutic compounds” (SmithKline Beecham Corporation, priority 2000, dated 2007).

System: HSV-1
Assay: HSV-1 replication in Vero 76 cells, viral DNA hybridization capture assay
Assay type: cell-based, herpes simplex virus 1
Conditions: Human alphaherpesvirus 1; HSV-1 infected Vero 76 cells, MOI=0.001, 40–48 hours incubation, HSV DNA detected by hybridization/chemiluminescence
Experimental: Vero 76 cells were maintained in MEM with Earle's salts, L-glutamine, 8% FBS (Hyclone, A-1111-L) and 100 units/mL Penicillin-100 μg/mL Streptomycin. For assay conditions, FBS was reduced to 2%. Cells are seeded into 96-well tissue culture plates at a density of 5×10^4 cells/well after being incubated for 45 min at 37° C. in the presence of HSV-1 or HSV-2 (MOI=0.001). Test compounds are added to the wells and the plates are incubated at 37° C. for 40–48 hours. Cell lysates are prepared as follows: media was removed and replaced with 150 μL/well 0.2 N NaOH with 1% Igepal CA 630 or NP-40. Plates were incubated up to 14 days at room temperature in a humidified chamber to prevent evaporation.
For the detection probe, a gel-purified, digoxigenin-labeled, 710-bp PCR fragment of the HSV UL-15 sequence was utilized. PCR conditions included 0.5 μM primers, 180 μM dTTP, 20 μM dUTP-digoxigenin (Boehringer Mannheim 1558706), 200 μM each of dATP, dCTP, and dGTP, 1×PCR Buffer II (Perkin Elmer), 2.5 mM MgCl2, 0.025 units/μL of AmpliTaq Gold polymerase (Perkin Elmer), and 5 ng of gel-purified HSV DNA per 100 μL. Extension conditions were 10 min at 95° C., followed by 30 cycles of 95° C. for 1 min, 55° C. for 30 sec, and 72° C. for 2 min. The amplification was completed with a 10-min incubation at 72° C. Primers were selected to amplify a 728 bp probe spanning a section of the HSV1 UL15 open reading frame (nucleotides 249–977). Single-stranded transcripts were purified with Promega M13 Wizard kits. The final product was mixed 1:1 with a mixture of 6 M GuSCN, 100 mM EDTA and 200 μg/mL herring sperm DNA and stored at 4° C.
The capture DNA plasmid (HSV UL13 region in pUC) was linearized by cutting with Xba I, denatured for 15 min at 95° C. and diluted immediately into Reacti-Bind DNA Coating Solution (Pierce, 17250, diluted 1:1 with TE buffer, pH 8) at 1 ng/μL 75 μL/well were added to Corning (#3922 or 9690) white 96-well plates and incubated at room temperature for at least 4 hrs before washing twice with 300 μL/well 0.2×SSC/0.05% Tween-20 (SSC/T buffer). The plates were then incubated overnight at room temperature with 150 μL/well 0.2 N NaOH, 1% IGEPAL and 10 μg/mL herring sperm DNA.
Twenty-seven (27) μL of cell lysate was combined with 45 μL of hybridization solution (final concentration: 3M GuSCN, 50 mM EDTA, 100 μg/ml salmon sperm DNA, 5× Denhardt's solution, 0.25×APE, and 5 ng of the digoxigenin-labeled detection probe). APE is 1.5 M NH4-acetate, 0.15 M ammonium phosphate monobasic, and 5 mM EDTA adjusted to pH 6.0. Mineral oil (50 μL) was added to prevent evaporation. The hybridization plates were incubated at 95° C. for 10 minutes to denature the DNA, then incubated at 42° C. overnight The wells were washed 6× with 300 μL/well SSC/T buffer then incubated with 75 μL/well anti-digoxigenin-HRP-conjugated antibody (Boehringer Mannheim 1207733, 1:5000 in TE) for 30 min at room temperature. The wells were washed 6× with 300 μL/well with PBS/0.05% Tween-20 before 75 μL/well SuperSignal LBA substrate (Pierce) was added. The plates were incubated at room temperature for 30 minutes and chemiluminescence was measured in a Wallac Victor reader.
The following results were obtained for HSV-1.

| Structure (SMILES) | IC50 |
| --- | --- |
| Fc1ccc(-c2nn3c(NC4CCCC4)cccc3c2-c2ccnc(Nc3ccccc3)n2)cc1 [Example 1, 3-(2-Anilino-4-pyrimidinyl)-N-cyclopentyl-2-(4-fluorophenyl)pyrazolo[1,5-α]pyridin-7-amine] | 500 nM |
| COc1cc(Nc2nccc(-c3c(-c4ccc(F)cc4)nn4c(NC5CCCC5)cccc34)n2)cc(OC)c1OC [Example 2, N-Cyclopentyl-2-(4-fluorophenyl)-3-[2-(3,4,5-trimethoxyanilino)-4-pyrimidinyl]pyrazolo[1,5-α]pyridin-7-amine] | 400 nM |
| COc1ccc(Nc2nccc(-c3c(-c4ccc(F)cc4)nn4c(NC5CCCC5)cccc34)n2)cc1 [Example 3, N-Cyclopentyl-2-(4-fluorophenyl)-3-[2-(4-methoxyanilino)-4-pyrimidinyl]pyrazolo[1,5-α]pyridin-7-amine] | 1250 nM |
| Fc1ccc(Nc2nccc(-c3c(-c4ccc(F)cc4)nn4c(NC5CCCC5)cccc34)n2)cc1 [Example 4, N-Cyclopentyl-3-[2-(4-fluoroanilino)-4-pyrimidinyl]-2-(4-fluorophenyl)pyrazolo[1,5-α]pyridin-7-amine] | 600 nM |
| COc1ccc(-c2nn3c(NC4CCCC4)cccc3c2-c2ccnc(Nc3cccc(C(=O)c4ccccc4)c3)n2)cc1 [Example 5, [3-({4-[7-(Cyclopentylamino)-2-(4-methoxyphenyl)pyrazolo[1,5-α]pyridin-3-yl]-2-pyrimidinyl}amino)phenyl](phenyl)methanone] | 2800 nM |
| Fc1ccc(-c2nn3ccc(Cl)cc3c2-c2ccnc(Nc3ccccc3)n2)cc1 [Example 6, 4-[5-Chloro-2-(4-fluorophenyl)pyrazolo[1,5-α]pyridin-3-yl]-N-phenyl-2-pyrimidinamine] | 14000 nM |
| Fc1ccc(-c2nn3ccc(NC4CCCC4)cc3c2-c2ccnc(Nc3ccccc3)n2)cc1 [Example 7, N-[3-(2-Anilino-4-pyrimidinyl)-2-(4-fluorophenyl)pyrazolo[1,5-α]pyridin-5-yl]-N-cyclopentylamine] | 3300 nM |
| Fc1ccc(-c2nn3c(NC4CCCC4)cc(Cl)cc3c2-c2ccnc(Nc3ccccc3)n2)cc1 [Example 8, 3-(2-Anilino-4-pyrimidinyl)-5-chloro-N-cyclopentyl-2-(4-fluorophenyl)pyrazolo[1,5-α]pyridin-7-amine] | 160 nM |
| CCSc1cc(Cl)cc2c(-c3ccnc(Nc4ccccc4)n3)c(-c3ccc(F)cc3)nn12 [Example 9, N-{4-[5-Chloro-7-(ethylsulfanyl)-2-(4-fluorophenyl)pyrazolo[1,5-α]pyridin-3-yl]-2-pyrimidinyl}-N-phenylamine] | 2000 nM |
| COc1ccc(-c2nn3c(NC4CCCC4)cccc3c2-c2ccnc(Nc3cccc([N+](=O)[O-])c3)n2)cc1 [Example 10, N-Cyclopentyl-2-(4-methoxyphenyl)-3-[2-(3-nitroanilino)-4-pyrimidinyl]pyrazolo[1,5-α]pyridin-7-amine] | 1000 nM |
| COc1ccc(-c2nn3c(NC4CCCC4)cccc3c2-c2ccnc(Nc3cccc(CO)c3)n2)cc1 [Example 11, [3-({4-[7-(Cyclopentylamino)-2-(4-methoxyphenyl)pyrazolo[1,5-α]pyridin-3-yl]-2-pyrimidinyl}amino)phenyl]methanol] | 700 nM |
| COc1ccc(-c2nn3c(NC4CCCC4)cccc3c2-c2ccnc(Nc3cccc(N)c3)n2)cc1 [Example 12, N^1-{4-[7-(Cyclopentylamino)-2-(4-methoxyphenyl)pyrazolo[1,5-α]pyridin-3-yl]-2-pyrimidinyl}-1,3-benzenediamine] | 700 nM |
| COc1ccc(-c2nn3c(NC4CCCC4)cccc3c2-c2ccnc(Nc3cccc(N=[N+]=[N-])c3)n2)cc1 [Example 13, 3-[2-(3-Azidoanilino)-4-pyrimidinyl]-N-cyclopentyl-2-(4-methoxyphenyl)pyrazolo[1,5-α]pyridin-7-amine] | 800 nM |
